The values below come from ChEMBL document CHEMBL5236603, “Discovery of mobocertinib, a potent, oral inhibitor of EGFR exon 20 insertion mutations in non-small cell lung cancer” (Bioorg Med Chem Lett, 2023).

Data set [1] is described as follows: AUClast in CD-1 mouse at 10 mg/kg, po by LC/MS/MS analysis. Format: ADME, organism-based. The arrangement: dose 10 mg/kg, route po. The settings on record: in vivo.
The target of data set [2] is Epidermal growth factor receptor (Homo sapiens, UniProt P00533). The data set is described as follows: Inhibition of […]-induced EGFR phosphorylation in human A549 cells pretreated for 2 hrs followed by EGF stimulation by immune assay. The format is cell-based.
Data set [3] relates to BaF3. The data set can be described thus: In vivo antitumor activity against mouse BaF3 cells expressing EGFR exon 20 insertion (ex20ins) ASV implanted in SCID mouse assessed as tumor growth inhibition at 100 mg/kg, po administered for 7 consecutive days. The format is functional. To be noted: BaF3, 168 h, time 7 day, read-out: TGI.
The nature of data set [4]: AUClast in CD-1 rat at 10 mg/kg, po by LC/MS/MS analysis. Format: ADME, organism-based. The arrangement: dose 10 mg/kg, route po. To be noted: in vivo.
Data set [5] is described as follows: Cmax in CD-1 rat at 10 mg/kg, po by LC/MS/MS analysis. The format is ADME, organism-based. The arrangement: dose 10 mg/kg, route po. To be noted: in vivo.
Data set [6] is described as follows: Inhibition of mouse EGFR D770_N771insNPG mutant stably expressed in mouse BaF3 cells assessed as cell viability incubated for 3 days by Cell Titer-Glo assay. The format is cell-based. To be noted: BaF3, 72 h. In general terms: In ATP-based viability assays light output follows the ATP content of the culture.
The nature of data set [7]: Cmax in CD-1 mouse at 10 mg/kg, po by LC/MS/MS analysis. Format: ADME, organism-based. The arrangement: dose 10 mg/kg, route po. To be noted: in vivo.
Data set [8] in a line: Inhibition of mouse EGFR V769_D770insASV mutant stably expressed in mouse BaF3 cells assessed as cell viability incubated for 3 days by Cell Titer-Glo assay. The format is cell-based. The settings on record: BaF3, 72 h.
Data set [9] is described as follows: Cmax in CD rat at 5 mg/kg, po by LC/MS/MS analysis. The format is ADME, organism-based. The arrangement: dose 5 mg/kg, route po. To be noted: in vivo.
Data set [10] is described as follows: AUC (0 to last)in CD rat at 5 mg/kg, po by LC/MS/MS analysis. The arrangement: dose 5 mg/kg, route po. To be noted: in vivo. Format: ADME, organism-based.
Data set [11] relates to BaF3. The data set is described as follows: In vivo antitumor activity against mouse BaF3 cells expressing EGFR exon 20 insertion (ex20ins) ASV implanted in SCID mouse assessed as tumor regression at 100 mg/kg, po administered for 7 consecutive days. Format: functional. The settings on record: time 7 day.
Data set [12] deals with BaF3. The data set can be described thus: In vivo antitumor activity against mouse BaF3 cells expressing EGFR exon 20 insertion (ex20ins) ASV implanted in SCID mouse assessed as tumor growth inhibition at 50 mg/kg, po administered for 7 consecutive days. The format is functional. To be noted: 168 h, time 7 day, read-out: TGI.

Sequence of Epidermal growth factor receptor (P00533 whole entry): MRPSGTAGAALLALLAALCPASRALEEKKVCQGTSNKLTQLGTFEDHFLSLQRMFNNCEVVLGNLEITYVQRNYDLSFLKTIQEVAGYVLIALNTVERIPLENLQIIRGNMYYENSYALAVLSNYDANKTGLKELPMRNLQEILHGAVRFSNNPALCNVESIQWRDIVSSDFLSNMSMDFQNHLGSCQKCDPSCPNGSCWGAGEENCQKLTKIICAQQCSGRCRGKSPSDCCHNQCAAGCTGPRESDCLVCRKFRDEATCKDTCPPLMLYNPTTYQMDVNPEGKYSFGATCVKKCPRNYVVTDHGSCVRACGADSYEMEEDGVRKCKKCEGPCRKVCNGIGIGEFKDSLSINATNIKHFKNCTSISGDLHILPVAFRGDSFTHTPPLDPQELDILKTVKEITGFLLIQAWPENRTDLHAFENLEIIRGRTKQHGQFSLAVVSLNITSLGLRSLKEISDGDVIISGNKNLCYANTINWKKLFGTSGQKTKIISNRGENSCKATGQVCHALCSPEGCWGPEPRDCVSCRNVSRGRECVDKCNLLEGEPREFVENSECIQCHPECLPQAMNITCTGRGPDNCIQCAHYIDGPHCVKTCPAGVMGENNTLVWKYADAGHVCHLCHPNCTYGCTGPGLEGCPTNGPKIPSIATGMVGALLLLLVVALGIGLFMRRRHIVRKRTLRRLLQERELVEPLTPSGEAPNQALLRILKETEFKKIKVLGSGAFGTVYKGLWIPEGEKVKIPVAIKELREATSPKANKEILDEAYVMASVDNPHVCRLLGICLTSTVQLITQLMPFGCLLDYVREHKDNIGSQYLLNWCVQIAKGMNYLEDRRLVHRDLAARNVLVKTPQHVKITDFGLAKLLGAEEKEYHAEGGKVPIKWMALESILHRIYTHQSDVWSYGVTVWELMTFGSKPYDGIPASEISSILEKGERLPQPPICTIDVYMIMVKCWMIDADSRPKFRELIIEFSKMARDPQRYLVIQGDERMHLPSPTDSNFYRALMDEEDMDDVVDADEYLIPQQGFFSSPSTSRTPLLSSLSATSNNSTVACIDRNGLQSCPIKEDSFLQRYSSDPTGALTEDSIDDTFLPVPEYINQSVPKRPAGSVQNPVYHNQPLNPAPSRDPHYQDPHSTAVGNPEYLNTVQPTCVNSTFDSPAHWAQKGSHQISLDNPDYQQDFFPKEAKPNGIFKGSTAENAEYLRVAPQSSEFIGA

Regarding `C=CC(=O)Nc1cc(Nc2ncc(C#N)c(-c3cn4c5c(cccc35)CCC4)n2)c(OC)cc1N(C)CCN(C)C`, the figures for the AUC(0-t) in data set [1] and in [4] were 200 ng·h/mL and 58 ng·h/mL, respectively. The IC50 came out at 35 nM in data set [2], 3.99 nM in data set [6] and 9.38 nM in data set [8]. Moreover, in the data set with BaF3 [3], the inhibition in vivo at 100 mg/kg worked out at 76%. The Cmax in data set [5] turned out to be 13 ng/mL; in [7] it was 29 ng/mL.

On to `C=CC(=O)Nc1cc(Nc2ncc(-c3cnn(C)c3)c(-c3cn4c5c(cccc35)CCC4)n2)c(OC)cc1N(C)CCN(C)C`, for which the figures for the AUC(0-t) in [1] and in data set [10] were 105 ng·h/mL and 853 ng·h/mL, respectively. The values for the IC50 in data set [2] and in data set [8] were 15 nM and 16 nM, respectively. The Cmax in data set [9] is 90 ng/mL; in data set [7], 59 ng/mL.

`C=CC(=O)Nc1cc(Nc2ncc(C(=O)OC(C)C)c(-c3cn(C)c4ccccc34)n2)c(OC)cc1N(C)C[C@H]1CCCN1C`: in the data set on BaF3 [11], the Activity is -10%. Also, the area under the curve AUC(0-t) in [1] came to 294 ng·h/mL; in [4] it was 323 ng·h/mL. Further, the inhibition in vivo at 50 mg/kg in the data set with BaF3 [12] stood at 72%. For the same compound, the figures for the IC50 in data set [2], in data set [6] and in data set [8] were 43 nM, 6 nM and 12 nM, respectively. The Cmax was 40 ng/mL in data set [5] and 94 ng/mL in [7].

One may read the AUC(0-t) as the area under the concentration-time curve up to a stated or last time point. A lower AUC(0-t) goes with low exposure. The IC50 is the midpoint of a concentration-inhibition curve. The term Cmax denotes the peak of the concentration-time curve.
